Data taken from US7504400B2, “MTP inhibiting aryl piperydines or piperazines substituted with 5-membered heterocycles” (Janssen Pharmaceutica N.V., priority 2004, dated 2009).

Tested on: Secretion of ApoB
Assay: Quantification of the secretion of ApoB in HepG2 cells
Assay type: cell-based
Conditions: Homo sapiens, HepG2, 24 h, 24 hours of incubation with test compound, immunoprecipitation of apoB from medium, read-out: pIC50 value (=-log IC50 value), secretion of ApoB (converted)
Method in brief: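 At 70% confluency, HepG2 cells in MEM with 10% FCS received compound or DMSO carrier (0.4% final) for 24 h. Secreted apoB in cleared medium immunoprecipitated with sheep anti-apoB then rabbit anti-sheep antibody (24 h each, 8° C); pellet radioactivity counted by liquid scintillation; IC50 expressed as pIC50.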

Compound	IC50 [nM]
CC(C)CNC(=O)C(c1ccccc1)N1CCN(c2ccc(-n3ncn(C(C)C)c3=O)cc2)CC1 (stereo not shown) [Compound 119]	316 to 3160
CC(=O)N1CCc2ccc(NC(=O)C(c3ccccc3)N3CCN(c4ccc(-n5cnn(C(C)C)c5=O)cc4)CC3)cc21 (stereo not shown) [Compound 202]	31.6 to 316
CCNC(=O)C(c1ccccc1)N1CCN(c2ccc(-n3cnn(C(C)CC)c3=O)cc2)CC1 (stereo not shown) [Compound 175]	31.6 to 316
CC(C)n1ncn(-c2ccc(N3CCN(C(C(=O)NCc4cccc5ccccc45)c4ccccc4)CC3)cc2)c1=O (stereo not shown) [Compound 83]	31.6 to 316
CC(C)CNC(=O)C(c1ccccc1)N1CCN(c2ccc(-n3cnn(C(C)C)c3=O)cn2)CC1 (stereo not shown) [Compound 43]	316 to 3160
CCCCCNC(=O)C(c1ccccc1)N1CCN(c2ccc(-n3c(C)nn(C(C)C)c3=O)cc2)CC1 (stereo not shown) [Compound 111]	316 to 3160
O=C(NCc1ccccc1)C(c1ccccc1)C1CCN(c2ccc(-n3cnn(Cc4ccccc4)c3=O)cc2)CC1 (stereo not shown) [Compound 158]	31.6 to 316
CCCOC(=O)C(CN1CCN(c2ccc(-n3cnn(C(C)C)c3=O)cc2)CC1)c1ccccc1 (stereo not shown) [Compound 41]	316 to 3160
CCCCCNC(=O)C(c1ccccc1)N1CCN(c2ccc(-n3ncn(C(C)C)c3=O)cc2)CC1 (stereo not shown) [Compound 120]	316 to 3160
CC(C)N1CCN(c2ccc(N3CCN(C(C(=O)Nc4ccc5c(c4)CCC5)c4ccccc4)CC3)cc2)C1=O (stereo not shown) [Compound 203]	< 31.6
CC(C)NC(=O)C(c1ccccc1)(c1ccccc1)N1CCN(c2ccc(-n3cnn(C(C)C)c3=O)cc2)CC1 [Compound 135]	316 to 3160
CC(C)n1ncn(-c2ccc(C3CCN(C(C(=O)NCc4ccccc4)c4ccccc4)CC3)cc2)c1=O (stereo not shown) [Compound 20]	31.6 to 316
CC(C)NC(=O)C(c1ccccc1)N1CCN(c2ccc(-n3ncn(C(C)C)c3=O)cc2)CC1 (stereo not shown) [Compound 115]	316 to 3160
CCCCCNC(=O)C(c1ccccc1)N1CCN(c2ccc(-n3cnn(C(C)CC)c3=O)cc2)CC1 (stereo not shown) [Compound 96]	31.6 to 316
CC(C)n1ncn(-c2ccc(N3CCN(CC(C(=O)Nc4ccccc4)c4ccccc4)CC3)cc2)c1=O (stereo not shown) [Compound 129]	316 to 3160
CCOC(=O)C(c1ccccc1)N1CCN(c2ccc(-n3cnn(C(C)C)c3=O)cc2)CC1 (stereo not shown) [Compound 17]	316 to 3160
CC(C)CNC(=O)C(CN1CCN(c2ccc(-n3cnn(C(C)C)c3=O)cc2)CC1)c1ccccc1 (stereo not shown) [Compound 107]	316 to 3160
CC(C)n1ccn(-c2ccc(N3CCN(C(C(=O)Nc4ccc5c(c4)CCC5)c4ccccc4)CC3)cc2)c1=O (stereo not shown) [Compound 205]	< 31.6
CC(C)n1ncn(-c2ccc(N3CCN(C(C(=O)Nc4ccc(F)cc4F)c4ccccc4)CC3)cc2)c1=O (stereo not shown) [Compound 62]	31.6 to 316
CC(C)Cn1ncn(-c2ccc(N3CCC(C(C(=O)NC(C)C)c4ccccc4)CC3)cc2)c1=O (stereo not shown) [Compound 90]	316 to 3160

Compound	IC50 [nM]
CC(C)n1ncn(-c2ccc(N3CCN(C(C(=O)Nc4ccc5c(c4)CCC5)c4ccccc4)CC3)cc2)c1=O (stereo not shown) [Compound 11]	< 31.6
CCCNC(=O)C(c1ccccc1)N1CCN(c2ccc(-n3ncn(C(C)C)c3=O)cc2)CC1 (stereo not shown) [Compound 114]	316 to 3160
C=CCNC(=O)C(c1ccccc1)N1CCN(c2ccc(-n3ncn(C(C)C)c3=O)cc2)CC1 (stereo not shown) [Compound 116]	316 to 3160
CC(C)NC(=O)C(c1ccccc1)N1CCC(c2ccc(-n3cnn(C(C)C)c3=O)cc2)CC1 (stereo not shown) [Compound 140]	31.6 to 316
CC(C)n1ncn(-c2ccc(C3CCN(C(C(=O)Nc4ccccc4)c4ccccc4)CC3)cc2)c1=O (stereo not shown) [Compound 19]	31.6 to 316
CCOC(=O)C(c1ccccc1)N1CCN(c2ccc(-n3ccn(C(C)C)c3=O)cc2)CC1 (stereo not shown) [Compound 189]	316 to 3160
COc1ccccc1NC(=O)C(c1ccccc1)N1CCN(c2ccc(-n3cnn(C(C)C)c3=O)cc2)CC1 (stereo not shown) [Compound 185]	316 to 3160
CC(C)n1ncn(-c2ccc(N3CCN(C(C(=O)NCc4ccc(S(C)(=O)=O)cc4)c4ccccc4)CC3)cc2)c1=O (stereo not shown) [Compound 73]	316 to 3160
COC(=O)c1cccc(NC(=O)C(c2ccccc2)N2CCN(c3ccc(-n4cnn(C(C)C)c4=O)cc3)CC2)c1 (stereo not shown) [Compound 192]	31.6 to 316
CCCCNC(=O)C(c1ccccc1)N1CCN(c2ccc(-n3ncn(C(C)C)c3=O)cc2)CC1 (stereo not shown) [Compound 118]	316 to 3160
Cc1ccc(C)c(NC(=O)C(c2ccccc2)N2CCN(c3ccc(-n4cnn(C(C)C)c4=O)cc3)CC2)c1 (stereo not shown) [Compound 54]	31.6 to 316
CCOC(=O)C(c1cccs1)N1CCN(c2ccc(-n3cnn(C(C)C)c3=O)cc2)CC1 (stereo not shown) [Compound 13]	316 to 3160
COC(=O)C(c1ccccc1)N1CCN(c2ccc(-n3cnn(C(C)C)c3=O)cc2)CC1 (stereo not shown) [Compound 172]	316 to 3160
CCCn1ncn(-c2ccc(N3CCN(C(C(=O)Nc4ccccc4)c4ccccc4)CC3)cc2)c1=O (stereo not shown) [Compound 124]	31.6 to 316
CC(C)n1ncn(-c2ccc(N3CCN(C(C(=O)NCCC#N)c4ccccc4)CC3)nc2)c1=O (stereo not shown) [Compound 50]	316 to 3160
CC(C)n1ncn(-c2ccc(N3CCN(C(C(=O)Nc4ccncc4)c4ccccc4)CC3)cc2)c1=O (stereo not shown) [Compound 10]	316 to 3160
CC(C)NC(=O)C(CN1CCN(c2ccc(-n3cnn(C(C)C)c3=O)cc2)CC1)c1ccccc1 (stereo not shown) [Compound 74]	31.6 to 316
CC(C)n1ncn(-c2ccc(N3CCN(C(C(=O)NCCCc4ccccc4)c4ccccc4)CC3)cc2)c1=O (stereo not shown) [Compound 85]	31.6 to 316
CC(C)Cn1ncn(-c2ccc(N3CCC(C(C(=O)NCc4ccccc4)c4ccccc4)CC3)cc2)c1=O (stereo not shown) [Compound 181]	31.6 to 316

More lines, now with the values ahead:

IC50 [nM]	Compound
< 31.6	CCOC(=O)[C@H](c1ccccc1)N1CCN(c2ccc(-n3ccn([C@H](C)c4ccccc4)c3=O)cc2)CC1 (relative stereo) [Compound 267]
31.6 to 316	CCOC(=O)C(c1ccccc1)C1CCN(c2ccc(-n3ccn(C(C)c4ccccc4)c3=O)cc2)CC1 (stereo not shown) [Compound 222]
31.6 to 316	CCOC(=O)C(c1ccccc1)C1CCN(c2ccc(-n3ccn([C@H](C)C4CCCCC4)c3=O)cc2)CC1 (stereo partly shown) [Compound 262]
316 to 3160	CCOC(=O)C(c1ccccc1)C1CCN(c2ccc(-n3ccn([C@H](C)c4ccc5ccccc5c4)c3=O)cc2)CC1 (stereo partly shown) [Compound 252]
31.6 to 316	CCOC(=O)C(c1ccccc1)N1CCN(c2ccc(-n3ccn(C(C)c4cccc(F)c4F)c3=O)cc2)CC1 (stereo not shown) [Compound 332]
316 to 3160	CCOC(=O)C(c1ccccc1)N1CCC(c2ccc(-n3ccn([C@@H](C)c4cccc(OC)c4)c3=O)cc2)CC1 (stereo partly shown) [Compound 238]
316 to 3160	CCOC(=O)[C@@H](NC(=O)CC1CCN(c2ccc(-n3cnn(C(C)c4ccccc4)c3=O)cc2)CC1)c1ccccc1 (stereo partly shown) [Compound 395]
316 to 3160	COC(=O)c1cccc(CNC(=O)C(c2ccccc2)N2CCN(c3ccc(-n4ccn(C(C)c5ccccc5)c4=O)cc3)CC2)c1 (stereo not shown) [Compound 291]
31.6 to 316	CCOC(=O)C(c1ccccc1)C1CCN(c2ccc(-n3ccn(C(CC)c4ccccc4)c3=O)cc2)CC1 (stereo not shown) [Compound 263]
31.6 to 316	CCOC(=O)[C@H](c1ccccc1)N1CCN(c2ccc(-n3ccn([C@H](C)c4ccc(F)cc4)c3=O)cc2)CC1 (relative stereo) [Compound 268]
< 31.6	COC(=O)c1ccc(NC(=O)C(c2ccccc2)N2CCC(c3ccc(-n4cnn(C(C)C)c4=O)cc3)CC2)cc1C (stereo not shown) [Compound 285]
316 to 3160	CCOC(=O)CC(NC(=O)C(c1ccccc1)N1CCN(c2ccc(-n3ccn(C(C)C)c3=O)cc2)CC1)c1ccc2c(c1)OCO2 (stereo not shown) [Compound 358]
316 to 3160	CCOC(=O)C(c1ccccc1)C1CCN(c2ccc(-n3ccn([C@H](C)c4cccc(OC)c4)c3=O)cc2)CC1 (stereo partly shown) [Compound 257]
31.6 to 316	CCOC(=O)C(c1ccccc1)N1CCC(c2ccc(-n3ccn([C@H](C)C4CCCCC4)c3=O)cc2)CC1 (stereo partly shown) [Compound 296]
31.6 to 316	COC(=O)C(c1ccc(Cl)cc1Cl)N1CCC(c2ccc(-n3cnn(C(C)C)c3=O)cc2)CC1 (stereo not shown) [Compound 322]
316 to 3160	CCOC(=O)C(c1ccccc1)C1CCN(c2ccc(-n3ccn([C@@H](C)c4cccc5ccccc45)c3=O)cc2)CC1 (stereo partly shown) [Compound 246]
31.6 to 316	CCOC(=O)C(c1ccccc1)N1CCC(c2ccc(-n3ccn([C@H](C)c4ccc(Cl)cc4)c3=O)cc2)CC1 (stereo partly shown) [Compound 235]
< 31.6	CC(C)n1ncn(-c2ccc(N3CCN(C(C(=O)Nc4ccc5c(c4)CC(NC(=O)OC(C)(C)C)C5)c4ccccc4)CC3)cc2)c1=O (stereo not shown) [Compound 306]
31.6 to 316	CCOC(=O)[C@H](c1ccccc1)N1CCN(c2ccc(-n3ccn(C(C)c4ccc(F)cc4F)c3=O)cc2)CC1 (stereo in doubt) [Compound 339]
31.6 to 316	COC(=O)c1[nH]c2ccc(C)cc2c1NC(=O)C(c1ccccc1)N1CCC(c2ccc(-n3cnn(C(C)C)c3=O)cc2)CC1 (stereo not shown) [Compound 353]
316 to 3160	CCOC(=O)CC1CCN(c2ccc(-n3cnn(C(C)c4ccccc4)c3=O)cc2)CC1 (stereo not shown) [Compound 386]
31.6 to 316	CCOC(=O)[C@@H](c1ccccc1)N1CCN(c2ccc(-n3cnn([C@@H](C)c4ccccc4)c3=O)cc2)CC1 (relative stereo) [Compound 281]
316 to 3160	CCOC(=O)c1cc(NC(=O)C(Cc2ccccc2)C2CCN(c3ccc(-n4cnn(C(C)c5ccccc5)c4=O)cc3)CC2)ccc1C (stereo not shown) [Compound 373]
31.6 to 316	CCOC(=O)[C@@H](c1ccccc1)N1CCN(c2ccc(-n3cnn([C@@H](C)c4ccc(F)cc4)c3=O)cc2)CC1 (relative stereo) [Compound 299]
316 to 3160	CCOC(=O)C(c1ccccc1)C1CCN(c2ccc(-n3ccn([C@@H](C)c4ccc(C)cc4)c3=O)cc2)CC1 (stereo partly shown) [Compound 254]
316 to 3160	COC(=O)C(c1ccc(Br)cc1)N1CCN(c2ccc(-n3cnn(C(C)C)c3=O)cc2)CC1 (stereo not shown) [Compound 329]
31.6 to 316	CCOC(=O)C(c1ccccc1)N1CCC(c2ccc(-n3ccn([C@H](C)c4ccccc4F)c3=O)cc2)CC1 (stereo partly shown) [Compound 278]
316 to 3160	COC(=O)C(c1ccc(Cl)cc1)N1CCC(c2ccc(-n3cnn(C(C)C)c3=O)cc2)CC1 (stereo not shown) [Compound 321]
